“And” between values parts separate entries of the source, which are not always exact repeats. Identical values can stand only once.
Tested on: Hs578T complex spheroid growth, percent test/control
Experiment: Anticancer human tumor Hs578T cell line growth inhibition [AhR];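 also: luminescent viability signal as a proxy for spheroid growth; spheroids exposed to agents for one week after three days of growth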
Details: for viability, T/C: stronger effect = lower value
Text: Multicellular complex tumor spheroid response to aryl hydrocarbon receptor antagonists in combination with a variety of drugs and investigational agents in selected tumor cell lines
The current study was undertaken to assess response to aryl hydrocarbon receptor antagonists in combination with standard-of-care drugs and investigational agents in solid tumor complex spheroid models. Complex spheroids include a stromal component modeled by human endothelial cells (HUVEC) and fibroblasts modeled by human mesenchymal stem cells (MSCs). The concentration ranges selected for each drug and investigational agent were based upon clinically achievable concentrations if the clinical Cmax of the agent was known.
Compounds. The drugs and investigational agents: BAY 2416964 (NSC825713), GNF351 (NSC835774), CH-223191 (NSC835775), CPI-455 (NSC825282), aza-TdCyd (NSC777586), decitabine (NSC127716), belinostat (NSC758774), entinostat (NSC756642), pevonedistat (NSC761192), tazemetostat (NSC777109), talazoparib (NSC765396), olaparib (NSC753686), selinexor (NSC780203), nedisertib (M3814, NSC802822), bortezomib (NSC756655), venetoclax (NSC766270), doxorubicin (NSC123127), elimusertib (BAY189344, NSC800525), ceralasertib (AZD6738, NSC777638), TAK-243 (NSC785004), alisertib (NSC759677), etoposide (NSC141540), topotecan (NSC609699), eribulin (NSC707389), gemcitabine (NSC613327), carboplatin (NSC241240), cisplatin (NSC119875), and SN-38 (NSC673596) were obtained from the National Cancer Institute (NCI) Developmental Therapeutics Program Chemical Repository (32). The FDA-approved anticancer drug set is available from the Developmental Therapeutics Program at https://dtp.cancer.gov/organization/dscb/obtaining/available plates.htm. […] The stock solutions were prepared in dimethyl sulfoxide (DMSO, Sigma-Aldrich, St. Louis, MO, cat. D2650), except for the platinum compounds which were prepared in saline (Quality Biological, Gaithersburg, MD, cat. 114-055-101), at 800-fold the tested concentration and stored at -70 degrees C prior to their use. All drugs and investigational agents were tested over a range starting from a high concentration at or near the clinical Cmax and decreasing in half-log increments. If the clinical Cmax for an agent had not been determined, the highest concentration tested was 10 microM (Table 1).
Cell Culture. All cells were maintained in an incubator at 37 degrees C and 5% CO2 with 95% humidity. The PDC lines were cultured according to standard operating procedures established by the NCI PDMR (https://pdmr.cancer.gov). Briefly, all PDCs were thawed and cultured in Matrigel-coated flasks prepared with a working solution of 1X Ham's F-12 nutrient mix, without supplementation (Invitrogen, Waltham, MA, cat. 11765054), 100 U/mL penicillin-streptomycin (Invitrogen, cat. 15140122), and 2.5% Matrigel (Corning Inc., Corning, NY, cat. 354248) for the first three passages. All PDCs were cultured in complete DMEM/F-12 media containing advanced DMEM/F-12 (Invitrogen, cat. 12634028), 4.9% defined fetal bovine serum, heat inactivated (HyClone Laboratories Inc., Logan, UT, cat. SH30070.03HI), 389 ng/mL hydrocortisone (Sigma-Aldrich, cat. H4001), 9.7 ng/mL human EGF recombinant protein (Invitrogen, cat. PHG0313), 23.4 microg/mL adenine (Sigma-Aldrich, cat. A2786), 97.3 U/mL penicillin-streptomycin (Invitrogen, cat. 15140122), 1.9 mM L-glutamine (Invitrogen, cat. 25030081), and 9.7 microM Y-27632 dihydrochloride (Tocris Bioscience, Bristol, United Kingdom, cat. 1254). The PDCs were cultured in complete DMEM/F12 media without 10 microM Y-27632 dihydrochloride for at least two passages prior to the screen. The established cell lines NCI-H1341 and […] were cultured in DMEM/F-12, HEPES (Invitrogen, cat. 11330032), 5% defined fetal bovine serum (HyClone Laboratories Inc., cat. SH30070.03), ITS premix universal culture supplement [insulin (5 microg/mL), transferrin (5 microg/mL), and selenious acid (5 ng/mL)] […]

SMILES | viability, T/C (compound 0.0316 µM) | viability, T/C (compound 0.1 µM) | viability, T/C (compound 0.316 µM) | viability, T/C (compound 1 µM) | viability, T/C (compound 3.16 µM) | viability, T/C (compound 10 µM) | IC50 (curve of compound) | also measured
COc1cccc2c1C(=O)c1c(O)c3c(c(O)c1C2=O)CC(O)(C(=O)CO)CC3OC1CC(N)C(O)C(C)O1 (configuration not stated) | 94.7% and 85.6% and 84.9% | 76.8% and 79.4% and 75.8% | 64.8% and 54.3% and 58.2% | 22.9% and 18.6% and 23.3% | 3.73% and 2.18% and 2.52% | 3.36% and 2.24% and 3.77% | 0.448 µM and 0.364 µM and 0.406 µM | 
Cc1ccccc1N=Nc1ccc(NC(=O)c2ccnn2C)c(C)c1 |  | 101% [middle of 20 runs] |  | 102% [middle of 20 runs] |  | 64.6% [middle of 20 runs] |  | IC50 (compound alone, run of 08/22/2022): > 10 µM
Cc1cncc(-c2nc(NCCc3c[nH]c4ccccc34)c3ncn(C(C)C)c3n2)c1 |  | 107% [middle of 20 runs] | 110% [middle of 20 runs] |  |  | 6.41% [middle of 20 runs] |  | IC50 (compound alone, run of 08/16/2022): 4.32 µM [middle of 24 runs]
Cn1ncnc1C1c2n[nH]c(=O)c3cc(F)cc(c23)NC1c1ccc(F)cc1 (configuration not stated) | 97.6% and 104% and 106% | 102% and 96.8% and 95.4% |  |  |  |  | > 0.1 µM | viability, T/C (compound 0.000316 µM): 92.2% and 98.6% and 103%; viability, T/C (compound 0.001 µM): 104% and 105% and 101%; viability, T/C (compound 0.00316 µM): 113% and 105% and 109%; viability, T/C (compound 0.01 µM): 106% and 105% and 103%
NS(=O)(=O)OCC1CC(n2ccc3c(NC4CCc5ccccc54)ncnc32)CC1O (configuration not stated) | 105% (2×) and 111% | 91.6% and 81.1% and 96.8% | 96.3% and 80.9% and 75.9% | 61.7% and 50.2% and 53.7% | 41% and 40.2% and 31.6% | 36.6% and 31.7% and 31.8% | 1.85 µM and 1.52 µM and 1.09 µM | 
Nc1ccccc1NC(=O)c1ccc(CNC(=O)OCc2cccnc2)cc1 | 110% and 93.1% and 105% | 94.4% and 93.7% and 104% | 90.6% and 82% and 81.3% | 65.3% and 61.6% and 56.3% | 29.8% and 16.3% and 22.4% | 1.27% and 0.71% and 1.79% | 1.64 µM and 1.3 µM and 1.19 µM | 
Nc1ccn(C2OC(CO)C(O)C2(F)F)c(=O)n1 (configuration not stated) | 47.9% and 47.2% and 52.3% | 58.5% and 48.9% and 52.8% | 58.5% and 51% and 51.5% | 52.4% and 51.2% and 50.9% | 50.7% and 50.1% and 51.2% | 56.5% and 43.3% and 49% |  | 
Nc1ncn(C2CC(O)C(CO)O2)c(=O)n1 (configuration not stated) | 117% and 101% and 103% | 102% and 105% and 98.2% | 101% and 92.1% and 94.3% | 89.7% and 90.5% and 96.5% |  |  | > 1 µM | viability, T/C (compound 0.00316 µM): 107% and 102% and 97.1%; viability, T/C (compound 0.01 µM): 104% (2×) and 97.5%
Nc1ncn(C2CC(O)C(CO)S2)c(=O)n1 (configuration not stated) |  |  |  |  |  |  | > 0.3 µM | viability, T/C (compound 0.000949 µM): 112% and 105% and 101%; viability, T/C (compound 0.003 µM): 100% and 106% and 101%; viability, T/C (compound 0.00949 µM): 116% and 96% and 105%; viability, T/C (compound 0.03 µM): 102% and 97.7% and 101%; viability, T/C (compound 0.0949 µM): 102% and 97.4% and 104%; viability, T/C (compound 0.3 µM): 98.1% and 90.8% and 94.5%
O=C(C=Cc1cccc(S(=O)(=O)Nc2ccccc2)c1)NO | 95.1% and 99% and 103% | 109% and 96.7% and 106% | 91.4% and 95.8% and 88.1% | 73.5% and 71.2% and 72.4% | 49.8% and 26% and 40.5% | 1.74% and 0.77% and 1.35% | 2.91 µM and 1.73 µM and 2.23 µM | 
O=C(C=Cn1cnc(-c2cc(C(F)(F)F)cc(C(F)(F)F)c2)n1)NNc1cnccn1 |  |  |  |  |  |  | 0.346 µM and 0.176 µM and 0.244 µM | viability, T/C (compound 0.00949 µM): 91.2% and 92.5% and 96.9%; viability, T/C (compound 0.03 µM): 95.9% and 92.7% and 88.6%; viability, T/C (compound 0.0949 µM): 90.4% and 70.7% and 77.7%; viability, T/C (compound 0.3 µM): 54.4% and 32.3% and 45.1%; viability, T/C (compound 0.949 µM): 18.8% and 10% and 17.4%; viability, T/C (compound 3 µM): 15.7% and 10.8% and 15.9%
O=C(c1cc(Cc2n[nH]c(=O)c3ccccc23)ccc1F)N1CCN(C(=O)C2CC2)CC1 | 104% and 103% and 102% | 108% and 102% and 106% | 109% and 98.8% and 95% | 104% and 103% and 88.4% | 90.8% and 91.2% and 88.4% | 82.5% and 75.1% and 82.1% | > 10 µM | 

— PubChem BioAssay AID1919010 (Molecular Pharmacology Branch, DTP, NCI, 2023)
